Experimental data from the CheMixHub viscosity set.
Where “and” joins values, the source holds several entries; their conditions need not be identical. Identical values can stand only once.

Assay: xn = mol fraction of the nth substance listed

NCCO + O
Conditions | viscosity
293.15 K, 100 kPa, x2 = 0.46 | 21.2 mPa·s
293.15 K, 101 kPa, x1 = 0.03289 | 1.389 mPa·s
293.15 K, 101 kPa, x1 = 0.06899 | 1.903 mPa·s
293.15 K, 101 kPa, x1 = 0.069 | 1.88 mPa·s
293.15 K, 101 kPa, x1 = 0.0699 | 1.953 mPa·s
293.15 K, 101 kPa, x1 = 0.1124 | 3.125 mPa·s
293.15 K, 101 kPa, x1 = 0.1654 | 4.243 mPa·s
293.15 K, 101 kPa, x1 = 0.23 | 6.17 mPa·s
293.15 K, 101 kPa, x1 = 0.3043 | 9.893 mPa·s
293.15 K, 101 kPa, x1 = 0.47 | 16.6 mPa·s
293.15 K, 101 kPa, x1 = 0.6204 | 23.11 mPa·s
293.15 K, 101 kPa, x1 = 0.803 | 25.85 mPa·s
293.15 K, 101 kPa, x2 = 0.84 | 4.64 mPa·s
293.15 K, 101 kPa, x2 = 0.93 | 2.002 mPa·s
293.15 K, 101.3 kPa, x1 = 0.07 | 2.005 mPa·s
293.15 K, 101.3 kPa, x1 = 0.2 | 4.667 mPa·s and 7.345 mPa·s
293.15 K, 101.3 kPa, x1 = 0.3 | 11.29 mPa·s
293.15 K, 101.3 kPa, x1 = 0.4 | 15.77 mPa·s
293.15 K, 101.3 kPa, x1 = 0.5 | 21 mPa·s
293.15 K, 101.3 kPa, x1 = 0.7 | 24.02 mPa·s
298.14 K, 100 kPa, x1 = 0.112 | 2.464 mPa·s
298.15 K, 100 kPa, x1 = 0.069 | 1.621 mPa·s
298.15 K, 100 kPa, x1 = 0.11 | 2.415 mPa·s
298.15 K, 100 kPa, x1 = 0.112 | 2.467 mPa·s and 2.464 mPa·s
298.15 K, 101 kPa, x1 = 0.03289 | 1.224 mPa·s
298.15 K, 101 kPa, x1 = 0.06899 | 1.689 mPa·s
298.15 K, 101 kPa, x1 = 0.1121 | 2.44 mPa·s
298.15 K, 101 kPa, x1 = 0.1122 | 2.54 mPa·s
298.15 K, 101 kPa, x1 = 0.1124 | 2.714 mPa·s
298.15 K, 101 kPa, x1 = 0.1422 | 3.11 mPa·s
298.15 K, 101 kPa, x2 = 0.84 | 3.41 mPa·s and 3.76 mPa·s
298.15 K, 101 kPa, x2 = 0.8878 | 2.52 mPa·s
298.15 K, 101 kPa, x2 = 0.89 | 2.46 mPa·s
298.15 K, 101.3 kPa, x1 = 0.03 | 1.299 mPa·s
298.15 K, 101.3 kPa, x1 = 0.1 | 2.489 mPa·s
298.15 K, 101.3 kPa, x1 = 0.2 | 3.765 mPa·s and 5.547 mPa·s
298.15 K, 101.3 kPa, x1 = 0.3 | 9.062 mPa·s
298.15 K, 101.3 kPa, x1 = 0.4 | 12.6 mPa·s
298.15 K, 101.3 kPa, x1 = 0.5 | 16.29 mPa·s
298.15 K, 101.3 kPa, x1 = 0.7 | 19.9 mPa·s
303.15 K, 100 kPa, x1 = 0.1 | 1.91 mPa·s
303.15 K, 100 kPa, x1 = 0.2 | 3.87 mPa·s
303.15 K, 100 kPa, x1 = 0.3 | 6.67 mPa·s
303.15 K, 100 kPa, x1 = 0.4 | 9.68 mPa·s
303.15 K, 100 kPa, x1 = 0.5 | 12.3 mPa·s
303.15 K, 100 kPa, x1 = 0.6 | 14 mPa·s
303.15 K, 100 kPa, x2 = 0.46 | 13.1 mPa·s
303.15 K, 101 kPa, x1 = 0.03289 | 1.087 mPa·s
303.15 K, 101 kPa, x1 = 0.06899 | 1.482 mPa·s
303.15 K, 101 kPa, x1 = 0.0699 | 1.477 mPa·s and 1.177 mPa·s
303.15 K, 101 kPa, x1 = 0.1122 | 2.19 mPa·s
303.15 K, 101 kPa, x1 = 0.1124 | 2.397 mPa·s
303.15 K, 101 kPa, x1 = 0.1422 | 2.65 mPa·s
303.15 K, 101 kPa, x1 = 0.1654 | 3.059 mPa·s
303.15 K, 101 kPa, x1 = 0.3043 | 6.608 mPa·s
303.15 K, 101 kPa, x1 = 0.6204 | 13.65 mPa·s
303.15 K, 101 kPa, x1 = 0.803 | 15.72 mPa·s
303.15 K, 101 kPa, x2 = 0.84 | 3.27 mPa·s
303.15 K, 101 kPa, x2 = 0.93 | 1.496 mPa·s
303.15 K, 101.3 kPa, x1 = 0.03 | 1.121 mPa·s
303.15 K, 101.3 kPa, x1 = 0.07 | 1.501 mPa·s
303.15 K, 101.3 kPa, x1 = 0.1 | 2.195 mPa·s
303.15 K, 101.3 kPa, x1 = 0.2 | 3.279 mPa·s and 4.96 mPa·s
303.15 K, 101.3 kPa, x1 = 0.3 | 7.417 mPa·s
303.15 K, 101.3 kPa, x1 = 0.4 | 10.31 mPa·s
303.15 K, 101.3 kPa, x1 = 0.5 | 13.15 mPa·s
308.15 K, 101 kPa, x1 = 0.03289 | 0.973 mPa·s
308.15 K, 101 kPa, x1 = 0.06899 | 1.31 mPa·s
308.15 K, 101 kPa, x1 = 0.1124 | 2.143 mPa·s
313 K, 101 kPa, x1 = 0.11 | 1.57 mPa·s
313.15 K, 100 kPa, x1 = 0.1 | 1.48 mPa·s
313.15 K, 100 kPa, x2 = 0.46 | 8.59 mPa·s
313.15 K, 101 kPa, x1 = 0.03289 | 0.878 mPa·s
313.15 K, 101 kPa, x1 = 0.11 | 1.66 mPa·s
313.15 K, 101 kPa, x1 = 0.1124 | 1.95 mPa·s
313.15 K, 101 kPa, x1 = 0.1422 | 1.99 mPa·s
313.15 K, 101 kPa, x1 = 0.3043 | 4.654 mPa·s
313.15 K, 101 kPa, x1 = 0.803 | 10.54 mPa·s
313.15 K, 101 kPa, x2 = 0.84 | 2.3 mPa·s
313.15 K, 101 kPa, x2 = 0.93 | 1.163 mPa·s
313.15 K, 101.3 kPa, x1 = 0.03 | 0.909 mPa·s
313.15 K, 101.3 kPa, x1 = 0.2 | 3.423 mPa·s
313.15 K, 101.3 kPa, x1 = 0.3 | 5.291 mPa·s
313.15 K, 101.3 kPa, x1 = 0.4 | 7.024 mPa·s
313.15 K, 101.3 kPa, x1 = 0.5 | 8.95 mPa·s
318.15 K, 101 kPa, x1 = 0.03289 | 0.798 mPa·s
318.15 K, 101 kPa, x1 = 0.06899 | 1.048 mPa·s
323 K, 101 kPa, x1 = 0.11 | 1.22 mPa·s
323.15 K, 100 kPa, x2 = 0.46 | 5.92 mPa·s
323.15 K, 101 kPa, x1 = 0.03289 | 0.731 mPa·s
323.15 K, 101 kPa, x1 = 0.06899 | 0.948 mPa·s
323.15 K, 101 kPa, x1 = 0.069 | 0.94 mPa·s
323.15 K, 101 kPa, x1 = 0.0699 | 0.973 mPa·s
323.15 K, 101 kPa, x1 = 0.1654 | 1.76 mPa·s
323.15 K, 101 kPa, x1 = 0.23 | 2.57 mPa·s
323.15 K, 101 kPa, x1 = 0.3043 | 3.401 mPa·s
323.15 K, 101 kPa, x1 = 0.47 | 5.37 mPa·s
323.15 K, 101 kPa, x1 = 0.6204 | 6.592 mPa·s
323.15 K, 101 kPa, x1 = 0.803 | 7.219 mPa·s
323.15 K, 101 kPa, x2 = 0.84 | 1.78 mPa·s
323.15 K, 101 kPa, x2 = 0.89 | 1.23 mPa·s
323.15 K, 101 kPa, x2 = 0.93 | 0.942 mPa·s
323.15 K, 101.3 kPa, x1 = 0.03 | 0.715 mPa·s
323.15 K, 101.3 kPa, x1 = 0.07 | 0.945 mPa·s
323.15 K, 101.3 kPa, x1 = 0.1 | 1.338 mPa·s
323.15 K, 101.3 kPa, x1 = 0.2 | 1.782 mPa·s and 2.566 mPa·s
323.15 K, 101.3 kPa, x1 = 0.3 | 3.771 mPa·s
323.15 K, 101.3 kPa, x1 = 0.4 | 5.055 mPa·s
323.15 K, 101.3 kPa, x1 = 0.5 | 6.273 mPa·s
323.15 K, 101.3 kPa, x1 = 0.7 | 7.09 mPa·s
